# Results reported in PMC10994248 (The Oncologist, 2024).
# Experiment: Phase I safety and tolerability (TEAEs, DLTs, MTD, DRDE) in patients with advanced solid tumors
# Type: in vivo, human
# Procedure: This 2-part, open-label, phase I study was conducted at the MD Anderson Cancer Center in Texas, USA and the Cancer Hospital Chinese Academy of Medical Sciences in Beijing, China. […] This was followed by a dose-expansion phase, the primary objective of which was to confirm the safety and tolerability of tinengotinib at the DRDE. Secondary objectives were to characterize the pharmacokinetics and preliminary efficacy of tinengotinib.
# Dose escalation was guided by an adaptive Bayesian logistic regression model using the Escalation with Overdose Control principle.[6],[7] Study data (including DLTs, grade 2 adverse events during cycle 1, and pharmacokinetic data) were reviewed by the sponsor and trial investigators at each dose level and used to guide dose-escalation decisions. MTD was based on the Bayesian model, but with consideration given to available safety and tolerability data. DRDE was based on an evaluation of all available data (safety, clinical activity, and pharmacokinetics).
# After determination of the DRDE, the dose-expansion phase was opened to further characterize safety and pharmacokinetics, and to assess preliminary efficacy.
# Routine safety assessments of adverse events, laboratory tests (hematology, coagulation, biochemistry, and urinalysis), vital signs, and 12-lead electrocardiograms were performed. Adverse events were graded according to the National Cancer Institute Common Terminology Criteria for Adverse Events (CTCAE), version 5.0.
# [1] = dose escalation (n = 40), any grade
# [2] = dose escalation (n = 40), grade ≥3
# [3] = dose expansion (12 mg, n = 8), any grade
# [4] = dose expansion (12 mg, n = 8), grade ≥3
substance,measurement,setting,value
tinengotinib,Patients with study drug-related TEAE leading to study drug permanent discontinuation,dose escalation 12 mg (n=12),1 (8.3) n (%)
same,Patients with study drug-related grade ≥3 TEAE,dose escalation 12 mg (n=12),6 (50.0) n (%)
same,Patients with study drug-related treatment-emergent SAE,dose escalation 12 mg (n=12),0 n (%)
same,Patients with treatment-emergent SAE,dose escalation 12 mg (n=12),5 (41.7) n (%)
same,Patients with AE,dose escalation 15 mg (n=6),6 (100) n (%)
same,Patients with TEAE,dose escalation 15 mg (n=6),6 (100) n (%)
same,Patients with TEAE leading to death,dose escalation 15 mg (n=6),0 n (%)
same,Patients with TEAE leading to dose adjustment/temporary interruption,dose escalation 15 mg (n=6),4 (66.7) n (%)
same,Patients with TEAE leading to study drug permanent discontinuation,dose escalation 15 mg (n=6),3 (50.0) n (%)
same,Patients with grade ≥3 TEAE,dose escalation 15 mg (n=6),5 (83.3) n (%)
same,Patients with study drug-related TEAE,dose escalation 15 mg (n=6),5 (83.3) n (%)
same,Patients with study drug-related TEAE leading to dose adjustment/temporary interruption,dose escalation 15 mg (n=6),3 (50.0) n (%)
same,Patients with study drug-related TEAE leading to study drug permanent discontinuation,dose escalation 15 mg (n=6),0 n (%)
same,Patients with study drug-related grade ≥3 TEAE,dose escalation 15 mg (n=6),3 (50.0) n (%)
same,Patients with study drug-related treatment-emergent SAE,dose escalation 15 mg (n=6),1 (16.7) n (%)
same,Patients with treatment-emergent SAE,dose escalation 15 mg (n=6),4 (66.7) n (%)
same,Study drug-related TEAE,[1],33 (82.5) No. (%)
same,Study drug-related TEAE: Alanine aminotransferase increased,[1],4 (10.0) No. (%)
same,Study drug-related TEAE: Aspartate aminotransferase increased,[1],4 (10.0) No. (%)
same,Study drug-related TEAE: Blood thyroid-stimulating hormone increased,[1],4 (10.0) No. (%)
same,Study drug-related TEAE: Decreased appetite,[1],5 (12.5) No. (%)
same,Study drug-related TEAE: Diarrhea,[1],15 (37.5) No. (%)
same,Study drug-related TEAE: Dry mouth,[1],5 (12.5) No. (%)
same,Study drug-related TEAE: Hypertension,[1],19 (47.5) No. (%)
same,Study drug-related TEAE: Myalgia,[1],5 (12.5) No. (%)
same,Study drug-related TEAE: Nausea,[1],11 (27.5) No. (%)
same,Study drug-related TEAE: Palmar-plantar erythrodysesthesia syndrome,[1],10 (25.0) No. (%)
same,Study drug-related TEAE: Proteinuria,[1],6 (15.0) No. (%)
same,Study drug-related TEAE: Stomatitis,[1],9 (22.5) No. (%)
same,Study drug-related TEAE: Vomiting,[1],10 (25.0) No. (%)
same,Study drug-related serious TEAE,[1],5 (12.5) No. (%)
same,Study drug-related TEAE,[2],16 (40.0) No. (%)
same,Study drug-related TEAE: Alanine aminotransferase increased,[2],0 No. (%)
same,Study drug-related TEAE: Aspartate aminotransferase increased,[2],0 No. (%)
same,Study drug-related TEAE: Blood thyroid-stimulating hormone increased,[2],0 No. (%)
same,Study drug-related TEAE: Decreased appetite,[2],0 No. (%)
same,Study drug-related TEAE: Diarrhea,[2],1 (2.5) No. (%)
same,Study drug-related TEAE: Dry mouth,[2],0 No. (%)
same,Study drug-related TEAE: Hypertension,[2],9 (22.5) No. (%)
same,Study drug-related TEAE: Myalgia,[2],0 No. (%)
same,Study drug-related TEAE: Nausea,[2],1 (2.5) No. (%)
same,Study drug-related TEAE: Palmar-plantar erythrodysesthesia syndrome,[2],1 (2.5) No. (%)
same,Study drug-related TEAE: Proteinuria,[2],0 No. (%)
same,Study drug-related TEAE: Stomatitis,[2],2 (5.0) No. (%)
same,Study drug-related TEAE: Vomiting,[2],0 No. (%)
same,Study drug-related serious TEAE,[2],0 No. (%)
same,Patients with AE,dose escalation total (n=40),39 (97.5) n (%)
same,Patients with TEAE,dose escalation total (n=40),39 (97.5) n (%)
same,Patients with TEAE leading to death,dose escalation total (n=40),0 n (%)
same,Patients with TEAE leading to dose adjustment/temporary interruption,dose escalation total (n=40),24 (60.0) n (%)
same,Patients with TEAE leading to study drug permanent discontinuation,dose escalation total (n=40),12 (30.0) n (%)
same,Patients with grade ≥3 TEAE,dose escalation total (n=40),26 (65.0) n (%)
same,Patients with study drug-related TEAE,dose escalation total (n=40),33 (82.5) n (%)
same,Patients with study drug-related TEAE leading to dose adjustment/temporary interruption,dose escalation total (n=40),18 (45.0) n (%)
same,Patients with study drug-related TEAE leading to study drug permanent discontinuation,dose escalation total (n=40),6 (15.0) n (%)
same,Patients with study drug-related grade ≥3 TEAE,dose escalation total (n=40),16 (40.0) n (%)
same,Patients with study drug-related treatment-emergent SAE,dose escalation total (n=40),5 (12.5) n (%)
same,Patients with treatment-emergent SAE,dose escalation total (n=40),18 (45.0) n (%)
same,Patients with AE,dose expansion 12 mg (n=8),8 (100) n (%)
same,Patients with TEAE,dose expansion 12 mg (n=8),8 (100) n (%)
same,Patients with TEAE leading to death,dose expansion 12 mg (n=8),0 n (%)
same,Patients with TEAE leading to dose adjustment/temporary interruption,dose expansion 12 mg (n=8),7 (87.5) n (%)
same,Patients with TEAE leading to study drug permanent discontinuation,dose expansion 12 mg (n=8),0 n (%)
same,Patients with grade ≥3 TEAE,dose expansion 12 mg (n=8),5 (62.5) n (%)
same,Patients with study drug-related TEAE,dose expansion 12 mg (n=8),8 (100) n (%)
same,Patients with study drug-related TEAE leading to dose adjustment/temporary interruption,dose expansion 12 mg (n=8),7 (87.5) n (%)
same,Patients with study drug-related TEAE leading to study drug permanent discontinuation,dose expansion 12 mg (n=8),0 n (%)
same,Patients with study drug-related grade ≥3 TEAE,dose expansion 12 mg (n=8),5 (62.5) n (%)
same,Patients with study drug-related treatment-emergent SAE,dose expansion 12 mg (n=8),3 (37.5) n (%)
same,Patients with treatment-emergent SAE,dose expansion 12 mg (n=8),4 (50.0) n (%)
same,Study drug-related TEAE,[3],8 (100) No. (%)
same,Study drug-related TEAE: Alanine aminotransferase increased,[3],1 (12.5) No. (%)
same,Study drug-related TEAE: Aspartate aminotransferase increased,[3],1 (12.5) No. (%)
same,Study drug-related TEAE: Blood thyroid-stimulating hormone increased,[3],3 (37.5) No. (%)
same,Study drug-related TEAE: Decreased appetite,[3],2 (25.0) No. (%)
same,Study drug-related TEAE: Diarrhea,[3],1 (12.5) No. (%)
same,Study drug-related TEAE: Dry mouth,[3],0 No. (%)
same,Study drug-related TEAE: Hypertension,[3],5 (62.5) No. (%)
same,Study drug-related TEAE: Myalgia,[3],0 No. (%)
same,Study drug-related TEAE: Nausea,[3],0 No. (%)
same,Study drug-related TEAE: Palmar-plantar erythrodysesthesia syndrome,[3],4 (50.0) No. (%)
same,Study drug-related TEAE: Proteinuria,[3],0 No. (%)
same,Study drug-related TEAE: Stomatitis,[3],5 (62.5) No. (%)
same,Study drug-related TEAE: Vomiting,[3],0 No. (%)
same,Study drug-related TEAE,[4],5 (62.5) No. (%)
same,Study drug-related TEAE: Alanine aminotransferase increased,[4],0 No. (%)
same,Study drug-related TEAE: Aspartate aminotransferase increased,[4],0 No. (%)
same,Study drug-related TEAE: Blood thyroid-stimulating hormone increased,[4],0 No. (%)
same,Study drug-related TEAE: Decreased appetite,[4],0 No. (%)
same,Study drug-related TEAE: Diarrhea,[4],0 No. (%)
same,Study drug-related TEAE: Dry mouth,[4],0 No. (%)
same,Study drug-related TEAE: Hypertension,[4],4 (50.0) No. (%)
same,Study drug-related TEAE: Myalgia,[4],0 No. (%)
same,Study drug-related TEAE: Nausea,[4],0 No. (%)
same,Study drug-related TEAE: Palmar-plantar erythrodysesthesia syndrome,[4],0 No. (%)
same,Study drug-related TEAE: Proteinuria,[4],0 No. (%)
same,Study drug-related TEAE: Stomatitis,[4],0 No. (%)
same,Study drug-related TEAE: Vomiting,[4],0 No. (%)
same,Study drug-related serious TEAE,[4],0 No. (%)
same,Dose recommended for dose expansion (DRDE),"orally once daily, 28-day cycle",12 mg
same,Study drug-related TEAE,"total (n = 48), any grade",41 (85.4) No. (%)
same,Study drug-related TEAE: Alanine aminotransferase increased,"total (n = 48), any grade",5 (10.4) No. (%)
same,Study drug-related TEAE: Aspartate aminotransferase increased,"total (n = 48), any grade",5 (10.4) No. (%)
same,Study drug-related TEAE: Blood thyroid-stimulating hormone increased,"total (n = 48), any grade",7 (14.6) No. (%)
same,Study drug-related TEAE: Decreased appetite,"total (n = 48), any grade",7 (14.6) No. (%)
same,Study drug-related TEAE: Diarrhea,"total (n = 48), any grade",16 (33.3) No. (%)
same,Study drug-related TEAE: Dry mouth,"total (n = 48), any grade",5 (10.4) No. (%)
same,Study drug-related TEAE: Hypertension,"total (n = 48), any grade",24 (50.0) No. (%)
same,Study drug-related TEAE: Myalgia,"total (n = 48), any grade",5 (10.4) No. (%)
same,Study drug-related TEAE: Nausea,"total (n = 48), any grade",11 (22.9) No. (%)
same,Study drug-related TEAE: Palmar-plantar erythrodysesthesia syndrome,"total (n = 48), any grade",14 (29.2) No. (%)
same,Study drug-related TEAE: Proteinuria,"total (n = 48), any grade",6 (12.5) No. (%)
same,Study drug-related TEAE: Stomatitis,"total (n = 48), any grade",14 (29.2) No. (%)
same,Study drug-related TEAE: Vomiting,"total (n = 48), any grade",10 (20.8) No. (%)
same,Study drug-related TEAE,"total (n = 48), grade ≥3",21 (43.8) No. (%)
same,Study drug-related TEAE: Alanine aminotransferase increased,"total (n = 48), grade ≥3",0 No. (%)
same,Study drug-related TEAE: Aspartate aminotransferase increased,"total (n = 48), grade ≥3",0 No. (%)
same,Study drug-related TEAE: Blood thyroid-stimulating hormone increased,"total (n = 48), grade ≥3",0 No. (%)
same,Study drug-related TEAE: Decreased appetite,"total (n = 48), grade ≥3",0 No. (%)
same,Study drug-related TEAE: Diarrhea,"total (n = 48), grade ≥3",1 (2.1) No. (%)
same,Study drug-related TEAE: Dry mouth,"total (n = 48), grade ≥3",0 No. (%)
same,Study drug-related TEAE: Hypertension,"total (n = 48), grade ≥3",13 (27.1) No. (%)
same,Study drug-related TEAE: Myalgia,"total (n = 48), grade ≥3",0 No. (%)
same,Study drug-related TEAE: Nausea,"total (n = 48), grade ≥3",1 (2.1) No. (%)
same,Study drug-related TEAE: Palmar-plantar erythrodysesthesia syndrome,"total (n = 48), grade ≥3",1 (2.1) No. (%)
same,Study drug-related TEAE: Proteinuria,"total (n = 48), grade ≥3",0 No. (%)
same,Study drug-related TEAE: Stomatitis,"total (n = 48), grade ≥3",2 (4.2) No. (%)
same,Study drug-related TEAE: Vomiting,"total (n = 48), grade ≥3",0 No. (%)
same,Study drug-related serious TEAE,"total (n = 48), grade ≥3",0 No. (%)
same,Patients with AE,total (n=48),47 (97.9) n (%)
same,Patients with TEAE,total (n=48),47 (97.9) n (%)
same,Patients with TEAE leading to death,total (n=48),0 n (%)
same,Patients with TEAE leading to dose adjustment/temporary interruption,total (n=48),31 (64.6) n (%)
same,Patients with TEAE leading to study drug permanent discontinuation,total (n=48),12 (25.0) n (%)
same,Patients with grade ≥3 TEAE,total (n=48),31 (64.6) n (%)
same,Patients with study drug-related TEAE,total (n=48),41 (85.4) n (%)
same,Patients with study drug-related TEAE leading to dose adjustment/temporary interruption,total (n=48),25 (52.1) n (%)
same,Patients with study drug-related TEAE leading to study drug permanent discontinuation,total (n=48),6 (12.5) n (%)
same,Patients with study drug-related grade ≥3 TEAE,total (n=48),21 (43.8) n (%)
same,Patients with study drug-related treatment-emergent SAE,total (n=48),8 (16.7) n (%)
same,Patients with treatment-emergent SAE,total (n=48),22 (45.8) n (%)
